How the values were obtained:
[1] = tested on: human β-defensin-2 (hBD-2); assay: Promotion of secretion/expression of β-defensin-2 in cultured human keratinocytes (RT-PCR, real-time PCR); type: cell-based; conditions: cultured human keratinocyte (HaCaT), 24 hours, with 1.7 mM calcium chloride; FIG. 1
Procedure: (§1) A medium containing 1% penicillin/streptomycin but not serum was used to culture human keratinocyte (HaCaT). The human keratinocyte was cultured in a 5% CO2 incubator at 37° C. The cells were seeded in each well of a 6-well plate at 3×10^5 cells/well, and then cultured for 48 hours. 1.7 mM calcium chloride and the new material synthesized from Example 1 were added thereto, and the cells were allowed to culture for 24 hours.
(§2) For assessment, at least one untreated control and at least one positive control were used together. 2.5 ng/mL of lipopolysaccharides (LPS), which is known to promote expression of hBD-2 and LL-37, was used as the positive control, and was allowed to react. After the reaction was completed, a supernatant was collected, and then the cells were washed with phosphate buffer saline (PBS) and collected by using a trypsin-EDTA solution, and stored in a tube. 1 ml of a triazole reagent was added to extract mRNA. […] The diluted RNA was analyzed at a wavelength between 260 nm and 280 nm, and quantitated. […]
(§3) 12.5 μl of PCR premix, 2 μl of primer sense (10 uM), 2 μl of primer antisense (10 uM), 1.5 μl of cDNA, and 7 μl of distilled water were inputted, and then PCR was carried out. […] The sample was migrated and then read out under UV in a dark room, and digitally photographed. Photos of the gel were analyzed by image processing software which quantifies the band intensities. […]

LL-37 = assay: Promotion of secretion/expression of LL-37 in cultured human keratinocytes (RT-PCR, real-time PCR); type: cell-based; conditions: cultured human keratinocyte (HaCaT), 24 hours, with 1.7 mM calcium chloride; FIG. 1
Procedure: as §1, §2, §3

nude mice [2] = assay: Recovery of skin barrier damage (TEWL) in nude mice with acute skin barrier disruption; type: in vivo, mouse; conditions: D-Squame acute barrier damage, topical coating, TEWL at 0 h, 3 h, 6 h, 24 h, FIG. 2
Procedure: Skin barriers of nude mice were acutely damaged, and then effects of the new material represented in Example on recovery of acute skin barriers were assessed. D-Squame was used to induce skin barrier damage to left and right back regions of 6-8 week aged nude mice. Here, all the experimental groups were maintained to have no difference in trans epidermal water loss (TEWL) through measurement of the trans epidermal water loss (TEWL), and then vehicle (PEG:EtOH=7:3) and the new material represented in the example were coated thereon. The trans epidermal water loss (TEWL) was measured at the time of 0 h, 3 h, 6 h, and 24 h to confirm recovery of the skin barrier, and skin biopsies were conducted at the respective time, to thereby implement histological examination and other examinations.

nude mice [3] = assay: Efficacy assessment on oxazolone animal model with atopic dermatitis (skin thickness); type: in vivo, mouse
Description: (§4) An animal model with atopic dermatitis was constructed by coating the abdomens of 6-8 week aged nude mice with 5% oxazolone solution one time for percutaneous sensitization; after week, with 0.1% oxazolone solution every other day, six times, and 1% oxazolone solution every other day, four times. It has been reported that in the case of the animal model with atopic dermatitis using oxazolone, antimicrobial peptides were reduced in the skin (Man M-Q, Hatano Y, Lee S H, et al. Characterization of a hepten-induced, murine model with multiple features of atopic dermatitis: structural, immunologic, and biochemical changes following single versus multiple oxazolone challenges. J Invest Dermatol (2008) 128, 79-86). The skin of the animal model with atopic dermatitis constructed as above was coated with vehicle (PEG:EtOH=7:3) and Compound 1a of Example 1 diluted with the vehicle at a concentration of 0.1% once in the morning and in the afternoon for a total of four days. On the last day, thickness of the skin was measured. Corticosteroid based drug, Dexamethasone, which is an effective anti-inflammatory agent, was used as a positive control.

CRAMP = assay: Expression of antimicrobial peptide (CRAMP) in the skin of the atopic dermatitis animal model (immunohistochemistry); type: in vivo, mouse; conditions: animal model with atopic dermatitis, coated for four days; FIG. 4
Description: as §4, with “Corticosteroid based drug, Dexamethasone, which is an effective anti-inflammatory agent, was used as a positive control.” left out
The new compound synthesized according to Example 1 was coated for four days, and then skin tissue biopsy was conducted to form a paraffin block. […] After the reaction was completed, expression of CRAMP in the corneum of the skin was measured through a microscope. […]

melting point: 96 °C
SMILES: CCCCCC(=O)N[C@@H](Cc1ccc(O)cc1)C(=O)OC [Chemical Formula (Ia), (S)-Methyl 2-(hexanamido)-3-(4-hydroxyphenyl)propanoate]
secretion of β-defensin-2 [1]: promotes secretion | secretion of LL-37 (LL-37): promotes secretion | skin barrier recovery (nude mice [2]): significantly promoted | skin barrier function (nude mice [3]; animal model with atopic dermatitis, topical application): improved | anti-inflammatory efficacy (nude mice [3]; oxazolone atopic dermatitis nude mice, 0.1% in PEG:EtOH=7:3, coated twice daily for four days, skin thickness, FIG. 3): improved | expression of antimicrobial peptides in the skin (CRAMP): increased

From patent publication US8809390B2, “Compound accelerating secretion of human-derived anti-microbial peptide, method for preparing same, and composition having same as active ingredient” (Neopharm Co., Ltd., priority 2010, dated 2014)
